Measurements as given in US9615576B2, “Pesticidal compositions and processes related thereto” (Dow AgroSciences LLC, priority 2011, dated 2017).

Experiments:
[1] = tested on: Beet Armyworm (BAW) (Spodoptera exigua); experiment: Bioassays on Beet Armyworm (BAW), 128-well diet tray assay; type: in vivo; settings: 168 h, 50 μg/cm^2 test compound on artificial diet, second instar larvae, 25° C., five to seven days, average of eight wells, read-out: BAW Rating (% mortality)
Method in brief: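 Second-instar larvae (1–5 per well) on artificial diet surface-treated with 50 μg/cm^2 compound applied in 90:10 acetone-water and dried; eight wells per compound. Held 5–7 days at 25° C., 14:10 light-dark. Percent mortality scored per well and averaged over eight wells.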

[2] = tested on: Corn Earworm (CEW) (Helicoverpa zea); experiment: Bioassays on Corn Earworm (CEW), 128-well diet tray assay; type: in vivo; settings: 168 h, 50 μg/cm^2 test compound on artificial diet, second instar larvae, 25° C., five to seven days, average of eight wells, read-out: CEW Rating (% mortality)
Method in brief: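 Second-instar larvae (one to five per well) placed on artificial diet treated with 50 μg/cm^2 compound in 90:10 acetone-water, dried; eight wells per compound. Held at 25° C, 14:10 light-dark, five to seven days; percent mortality averaged over wells.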

SMILES | mortality at 50 µg/cm2 [1] | mortality at 50 µg/cm2 [2]
O=C(NCc1ncc(/C=C/C(c2cc(Cl)c(Cl)c(Cl)c2)C(F)(F)F)cc1Cl)C1CC1 (stereo not shown) [CC45] | 50 to 100% | 50 to 100%
O=C(CC(F)(F)F)NCc1ccc(/C=C/C(c2cc(Cl)c(Cl)c(Cl)c2)C(F)(F)F)c2ccccc12 (stereo not shown) [CC46, (E)-3,3,3-trifluoro-N-((4-(4,4,4-trifluoro-3-(3,4,5-trichlorophenyl)but-1-en-1-yl)naphthalen-1-yl)methyl)propanamide] | 0% | 50 to 100%
O=C(NCc1ccc(/C=C/C(c2cc(Cl)cc(Cl)c2)C(F)(F)F)c2ccccc12)C1CC1 (stereo not shown) [CC47] | 0% | 0%
O=C(NCc1ccc(/C=C/C(c2cc(Cl)c(Cl)c(Cl)c2)C(F)(F)F)c2ccccc12)C1CC1 (stereo not shown) [CC48] | 0% | 0%
CCNC(=O)NCc1ccc(/C=C/C(c2cc(Cl)c(Cl)c(Cl)c2)C(F)(F)F)c2ccccc12 (stereo not shown) [CC49, (E)-1-ethyl-3-((4-(4,4,4-trifluoro-3-(3,4,5-trichlorophenyl)but-1-en-1-yl)naphthalen-1-yl)methyl)urea] | 0% | 0%
O=C(NNc1ccc(/C=C/C(c2cc(Cl)c(Cl)c(Cl)c2)C(F)(F)F)cc1)C1CC1 (stereo not shown) [CC50, (E)-N′-(4-(4,4,4-trifluoro-3-(3,4,5-trichlorophenyl)but-1-en-1-yl)phenyl)cyclopropanecarbohydrazide] | 50 to 100% | 50 to 100%
O=C(CC(F)(F)F)NNc1ccc(/C=C/C(c2cc(Cl)c(Cl)c(Cl)c2)C(F)(F)F)cc1 (stereo not shown) [CC51] | 50 to 100% | 50 to 100%
O=C(NOc1ccc(/C=C/C(c2cc(Cl)c(Cl)c(Cl)c2)C(F)(F)F)cc1)C1CC1 (stereo not shown) [CC52, (E)-N-(4-(4,4,4-trifluoro-3-(3,4,5-trichlorophenyl)but-1-en-1-yl)phenoxy)cyclopropanecarboxamide] | 50 to 100% | 0%
O=C(CC(F)(F)F)NOc1ccc(/C=C/C(c2cc(Cl)c(Cl)c(Cl)c2)C(F)(F)F)cc1 (stereo not shown) [CC53] | 0% | 0%
O=C(CC(F)(F)F)NCc1ccc(/C=C\C(c2cc(Cl)c(Cl)c(Cl)c2)C(F)(F)F)cc1 (stereo not shown) [CC54, (Z)-3,3,3-trifluoro-N-(4-(4,4,4-trifluoro-3-(3,4,5-trichlorophenyl)but-1-en-1-yl)benzyl)propanamide] | 50 to 100% | 50 to 100%
FC(F)(F)C(/C=C/c1ccc(-n2cncn2)cc1)c1cc(Cl)cc(Cl)c1 (stereo not shown) [DC1, (E)-1-(4-(3-(3,5-dichlorophenyl)-4,4,4-trifluorobut-1-en-1-yl)phenyl)-1H-1,2,4-triazole] | 50 to 100% | 50 to 100%
FC(F)(F)C(/C=C/c1ccc(-n2cncn2)cc1)c1cccc(Cl)c1 (stereo not shown) [DC2] | 0% | 0%
FC(F)(F)C(/C=C/c1ccc(-n2cncn2)cc1)c1ccccc1 (stereo not shown) [DC3] | 0 to 50% | 0%
FC(F)(F)C(/C=C/c1ccc(-n2cncn2)cc1)c1ccc(Cl)cc1 (stereo not shown) [DC4] | 50 to 100% | 0%
Cc1ccc(C(/C=C/c2ccc(-n3cncn3)cc2)C(F)(F)F)cc1 (stereo not shown) [DC5] | 0% | 0%
COc1ccc(C(/C=C/c2ccc(-n3cncn3)cc2)C(F)(F)F)cc1 (stereo not shown) [DC6] | 0% | 0%
Fc1ccc(C(/C=C/c2ccc(-n3cncn3)cc2)C(F)(F)F)cc1 (stereo not shown) [DC7] | 50 to 100% | 0%
Fc1cc(F)cc(C(/C=C/c2ccc(-n3cncn3)cc2)C(F)(F)F)c1 (stereo not shown) [DC8] | 50 to 100% | 0%
Fc1cccc(C(/C=C/c2ccc(-n3cncn3)cc2)C(F)(F)F)c1 (stereo not shown) [DC9] | 0% | 0%
Fc1ccccc1C(/C=C/c1ccc(-n2cncn2)cc1)C(F)(F)F (stereo not shown) [DC10] | 0% | 0%
Cc1cc(C)cc(C(/C=C/c2ccc(-n3cncn3)cc2)C(F)(F)F)c1 (stereo not shown) [DC11] | 50 to 100% | 0%

SMILES | mortality at 50 µg/cm2 [1] | mortality at 50 µg/cm2 [2]
FC(F)(F)C(/C=C/c1ccc(-n2cncn2)cc1)c1ccc(Cl)c(Cl)c1 (stereo not shown) [DC12] | 50 to 100% | 50 to 100%
FC(F)(F)C(/C=C/c1ccc(-n2cncn2)cc1)c1ccc(Cl)cc1Cl (stereo not shown) [DC13] | 50 to 100% | 50 to 100%
FC(F)(F)C(/C=C/c1ccc(-n2cncn2)cc1)c1cccc(Cl)c1Cl (stereo not shown) [DC14] | 0% | 0%
FC(F)(F)C(/C=C/c1ccc(-n2cncn2)cc1)c1cc(Cl)ccc1Cl (stereo not shown) [DC15] | 0% | 0%
FC(F)(F)c1cc(C(/C=C/c2ccc(-n3cncn3)cc2)C(F)(F)F)cc(C(F)(F)F)c1 (stereo not shown) [DC16] | 50 to 100% | 50 to 100%
FC(F)(F)C(/C=C/c1ccc(-n2cncn2)cc1)c1cc(Cl)cc(Cl)c1Cl (stereo not shown) [DC17] | 50 to 100% | 50 to 100%
FC(F)(F)C(/C=C/c1ccc(-n2cncn2)cc1)c1cc(Cl)c(Cl)c(Cl)c1 (stereo not shown) [DC18] | 50 to 100% | 50 to 100%
FC(F)(F)c1cc(Cl)cc(C(/C=C/c2ccc(-n3cncn3)cc2)C(F)(F)F)c1 (stereo not shown) [DC19] | 50 to 100% | 50 to 100%
COc1c(Cl)cc(C(/C=C/c2ccc(-n3cncn3)cc2)C(F)(F)F)cc1Cl (stereo not shown) [DC20] | 50 to 100% | 0%
Cc1ncn(-c2ccc(/C=C/C(c3cc(Cl)cc(Cl)c3)C(F)(F)F)cc2)n1 (stereo not shown) [DC21] | 0% | 0%
O=[N+]([O-])c1ncn(-c2ccc(/C=C/C(c3cc(Cl)cc(Cl)c3)C(F)(F)F)cc2)n1 (stereo not shown) [DC22] | 0% | 0%
Cc1ncnn1-c1ccc(/C=C/C(c2cc(Cl)cc(Cl)c2)C(F)(F)F)cc1 (stereo not shown) [DC23] | 0% | 50 to 100%
CC(=O)c1ncnn1-c1ccc(/C=C/C(c2cc(Cl)cc(Cl)c2)C(F)(F)F)cc1 (stereo not shown) [DC24] | 0% | 0%
CSc1ncnn1-c1ccc(/C=C/C(c2cc(Cl)cc(Cl)c2)C(F)(F)F)cc1 (stereo not shown) [DC25] | 0% | 0%
O=C(c1ncnn1-c1ccc(/C=C/C(c2cc(Cl)cc(Cl)c2)C(F)(F)F)cc1)C1CC1 (stereo not shown) [DC26] | 0% | 0%
CS(=O)(=O)c1ncnn1-c1ccc(/C=C/C(c2cc(Cl)cc(Cl)c2)C(F)(F)F)cc1 (stereo not shown) [DC27] | 0% | 0%
N#Cc1cc(/C=C/C(c2ccc(Cl)c(Cl)c2)C(F)(F)F)ccc1-n1cncn1 (stereo not shown) [DC28] | 50 to 100% | 50 to 100%
N#Cc1cc(/C=C/C(c2cc(Cl)cc(Cl)c2)C(F)(F)F)ccc1-n1cncn1 (stereo not shown) [DC29] | 50 to 100% | 50 to 100%
N#Cc1cc(/C=C/C(c2cc(C(F)(F)F)cc(C(F)(F)F)c2)C(F)(F)F)ccc1-n1cncn1 (stereo not shown) [DC30] | 50 to 100% | 50 to 100%
N#Cc1cc(/C=C/C(c2cc(Cl)c(Cl)c(Cl)c2)C(F)(F)F)ccc1-n1cncn1 (stereo not shown) [DC31] | 50 to 100% | 50 to 100%
